From ChEMBL document CHEMBL1138689, “Synthesis of 5a-carba-hexopyranoses and hexopyranosylamines, as well as 5a,5a'-dicarbadisaccharides, from 3,8-dioxatricyclo[4.2.1.0(2,4)]nonan-9-ol: glycosidase inhibitory activity of N-substituted 5a-carba-beta-gluco- and beta-galactopyranosylamines, and derivatives thereof” (Bioorg Med Chem Lett, 2004)

Columns and labels:
Beta-galactosidase = molecular target: T1, Beta-galactosidase (Bos taurus, UniProt Q58D55); assay: Inhibition of Beta-galactosidase of bovine liver; […]
T1 sequence (Q58D55 whole entry): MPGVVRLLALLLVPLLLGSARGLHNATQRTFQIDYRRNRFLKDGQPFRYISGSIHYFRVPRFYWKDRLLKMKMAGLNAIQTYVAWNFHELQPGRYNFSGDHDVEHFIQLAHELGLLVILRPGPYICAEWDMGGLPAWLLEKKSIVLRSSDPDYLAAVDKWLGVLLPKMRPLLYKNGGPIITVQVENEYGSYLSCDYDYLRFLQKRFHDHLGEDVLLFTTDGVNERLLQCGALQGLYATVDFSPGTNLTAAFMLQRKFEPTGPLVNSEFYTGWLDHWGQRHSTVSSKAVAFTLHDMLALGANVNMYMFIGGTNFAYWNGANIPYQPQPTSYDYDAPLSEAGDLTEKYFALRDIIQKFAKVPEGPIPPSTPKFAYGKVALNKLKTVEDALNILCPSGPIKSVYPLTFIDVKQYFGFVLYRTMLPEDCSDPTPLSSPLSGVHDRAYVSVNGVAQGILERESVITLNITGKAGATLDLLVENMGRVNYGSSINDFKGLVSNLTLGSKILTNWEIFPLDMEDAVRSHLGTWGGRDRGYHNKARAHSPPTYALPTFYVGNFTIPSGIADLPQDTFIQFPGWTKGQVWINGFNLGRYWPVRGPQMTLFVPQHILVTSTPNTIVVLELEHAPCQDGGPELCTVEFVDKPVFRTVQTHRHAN

[1] = Inhibition of Alpha-Glucosidase of Bakers yeast; NI=no inhibition; parameters: species or system Saccharomyces cerevisiae
[2] = molecular target: T2, Tissue alpha-L-fucosidase (Bos taurus, UniProt Q2KIM0); assay: Inhibition of Alpha-fucosidase of bovine kidney; NI=no inhibition
T2 sequence (Q2KIM0 whole entry): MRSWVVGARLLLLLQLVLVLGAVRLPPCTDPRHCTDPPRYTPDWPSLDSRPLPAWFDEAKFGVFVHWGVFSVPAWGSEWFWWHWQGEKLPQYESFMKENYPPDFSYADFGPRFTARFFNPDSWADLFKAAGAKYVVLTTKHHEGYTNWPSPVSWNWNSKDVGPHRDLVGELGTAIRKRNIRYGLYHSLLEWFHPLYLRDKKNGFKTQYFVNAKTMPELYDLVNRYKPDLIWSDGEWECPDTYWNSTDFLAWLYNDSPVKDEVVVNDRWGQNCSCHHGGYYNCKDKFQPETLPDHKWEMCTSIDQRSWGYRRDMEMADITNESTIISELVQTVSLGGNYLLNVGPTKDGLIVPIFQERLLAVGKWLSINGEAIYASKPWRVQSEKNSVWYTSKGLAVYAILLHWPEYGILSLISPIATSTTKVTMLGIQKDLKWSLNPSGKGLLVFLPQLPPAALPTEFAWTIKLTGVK

[3] = Inhibition of Alpha-galactosidase of green coffee beans; NI=no inhibition
[4] = Inhibition of Alpha-galactosidase of green coffee beans
[5] = Compound was tested for the inhibition of alpha-Glucosidase of Bakers yeast; NI denotes no inhibition; parameters: species or system Saccharomyces cerevisiae
[6] = Inhibition of Alpha-galactosidase of green coffee beans; […]

| SMILES | IC50 (Beta-galactosidase) | IC50 [1] | IC50 [2] | IC50 [3] | IC50 [4] | IC50 [5] | IC50 [6] |
| --- | --- | --- | --- | --- | --- | --- | --- |
| CCCCCCCCN[C@@H]1C[C@@H]2CO[C@H](C2O)[C@H]1O (single isomer, unassigned) | No inhibition | Not Active | Not Active | Not Active |  |  |  |
| N[C@H]1C[C@H](CO)[C@@H](O)[C@H](O)[C@H]1O |  |  |  |  | 2.8 µM |  |  |
| OC1[C@H]2CO[C@H]1[C@@H](O)[C@H](NCCc1ccccc1)C2 (single isomer, unassigned) | No inhibition |  | Not Active | Not Active |  | Not Active |  |
| OC1[C@H]2CO[C@H]1[C@@H](O)[C@H](NCc1ccccc1)C2 (single isomer, unassigned) | No inhibition | Not Active | Not Active | Not Active |  |  |  |
| CCCCCCCCCCCCN[C@@H]1C[C@@H]2CO[C@H](C2O)[C@H]1O (single isomer, unassigned) | No inhibition | Not Active | Not Active | Not Active |  |  |  |
| CO[C@@H]1CC2COC(C1O)[C@H]2NC1CC(CO)C(O)C(O)C1O (some centres undefined) |  |  |  |  | 1.2 µM |  |  |
| CCCCCCCCNC1CC(C)C(O)C(O)C1O (centres undefined) |  |  |  |  |  |  | > 1000 µM |
| C=C1CC(NCCCCCCCC)C(O)C(O)C1O (centres undefined) |  |  |  |  |  |  | > 1000 µM |
| CC(=O)NC1CC(CO)C(O)C(O)C1O (centres undefined) |  |  |  |  |  |  | > 1000 µM |
| CCCCCCCCNC1CC(CO)C(O)C(O)C1O (centres undefined) |  |  |  |  |  |  | > 1000 µM |
| CCCCCCCCCCN[C@@H]1C[C@@H]2CO[C@H](C2O)[C@H]1O (single isomer, unassigned) | No inhibition | Not Active | Not Active | Not Active |  |  |  |
| CCCCN[C@@H]1C[C@@H]2CO[C@H](C2O)[C@H]1O (single isomer, unassigned) | No inhibition | Not Active | Not Active | Not Active |  |  |  |
| CCCCCCN[C@@H]1C[C@@H]2CO[C@H](C2O)[C@H]1O (single isomer, unassigned) | No inhibition | Not Active | Not Active | Not Active |  |  |  |
